This note sets out measurements from PubChem BioAssay (NCI).

Some test systems named below: IGROV1 ovarian; HCC-2998 colon; OVCAR-8 ovarian; K-562 leukemia; MDA-N; NCI-H226 lung; HCT-116 colon; HOP-62 NSCLC; MCF7 breast; MDA-MB-231 breast; RXF 393 renal.
What all share (assay): NCI tumour cell line growth inhibition, 48 h

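Assay format: 96-well plates, 48-hour exposure. TGI denotes the concentration required for complete inhibition of growth.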 Where only a bound is given, the exact number is not on record here.

In the case of `Cc1cc2nc3c(N)nn(CCN(C)C)c3nc2cc1C`, the TGI was over 100 µM with IGROV1 ovarian; over 100 µM with HCC-2998 colon; over 100 µM in the experiment with OVCAR-8 ovarian; over 100 µM in the experiment on K-562 leukemia; over 100 µM in the experiment with MDA-N; 79.4 µM in the experiment with NCI-H226 lung. The TGI in the experiment on HCT-116 colon, in the experiment with HOP-62 NSCLC, in the experiment with MCF7 breast, in the experiment with MDA-MB-231 breast and with RXF 393 renal was over 100 µM each time.
Consider `CN1CCCC(OC(=O)c2cc3cc(CCl)ccc3oc2=O)C1` (configuration not stated), for which the TGI with IGROV1 ovarian is over 100 µM; in the experiment on HCC-2998 colon, 33.1 µM; in the experiment with OVCAR-8 ovarian it was over 100 µM; in the experiment with K-562 leukemia it was over 100 µM; in the experiment on MDA-N it was 46 µM; in the experiment with NCI-H226 lung, 58.1 µM. The TGI with HCT-116 colon stood at 48.7 µM; with HOP-62 NSCLC, 67.7 µM; in the experiment on MCF7 breast it was 50.1 µM; with MDA-MB-231 breast it was 52.1 µM; in the experiment on RXF 393 renal it was 54.6 µM.
`CCOC(=O)c1nc2ccccc2nc1Nc1ccc(F)cc1`: the TGI is 44.8 µM in the experiment on IGROV1 ovarian; over 100 µM in the experiment with HCC-2998 colon; 32 µM with OVCAR-8 ovarian; over 100 µM in the experiment on K-562 leukemia; over 100 µM in the experiment with MDA-N; over 63.7 µM in the experiment with NCI-H226 lung. Further, the TGI is over 69.3 µM in the experiment with HCT-116 colon; 38.2 µM in the experiment with HOP-62 NSCLC; over 100 µM in the experiment with MCF7 breast; 24.2 µM with MDA-MB-231 breast; 26.7 µM with RXF 393 renal.
`COc1ccc(/C=N/N=C(\N)NO)c(OC)c1OC`: the TGI in the experiment with IGROV1 ovarian is over 100 µM; with HCC-2998 colon, over 100 µM; with OVCAR-8 ovarian, 41.9 µM; with K-562 leukemia it was over 100 µM; in the experiment with MDA-N it was over 100 µM; in the experiment on NCI-H226 lung, 74.3 µM. Moreover, the TGI in the experiment with HCT-116 colon is 75.5 µM; in the experiment on HOP-62 NSCLC, over 100 µM; with MCF7 breast, over 100 µM; in the experiment with MDA-MB-231 breast, over 100 µM; in the experiment on RXF 393 renal it was over 100 µM.
On to `COC(=O)NC(Nc1ccc(C)cc1)(C(F)(F)F)C(F)(F)F`, for which the TGI in the experiment on IGROV1 ovarian, in the experiment on HCC-2998 colon, in the experiment with OVCAR-8 ovarian, in the experiment on K-562 leukemia, with MDA-N and with NCI-H226 lung was over 100 µM in each case. Further, the TGI with HCT-116 colon is over 100 µM; in the experiment with HOP-62 NSCLC it was over 100 µM; in the experiment on MCF7 breast, over 100 µM; in the experiment on MDA-MB-231 breast, over 100 µM; in the experiment with RXF 393 renal, 93.9 µM.
As to `O=C(c1ccccc1)c1ccc2nc(-c3c(Cl)c(Cl)c(Cl)c(Cl)c3C(=O)Nc3ccco3)[nH]c2c1`, the TGI with IGROV1 ovarian is over 100 µM; in the experiment with HCC-2998 colon, 53.1 µM; with OVCAR-8 ovarian it was over 100 µM; with K-562 leukemia, over 100 µM; in the experiment on MDA-N, 41 µM; in the experiment on NCI-H226 lung, over 100 µM. In addition, the TGI in the experiment on HCT-116 colon, in the experiment with HOP-62 NSCLC, with MCF7 breast, in the experiment with MDA-MB-231 breast and with RXF 393 renal was over 100 µM throughout.
For `CC(=O)c1cc(S(=O)(=O)c2ccc(O)c(C(C)=O)c2)ccc1O`, the TGI with IGROV1 ovarian, in the experiment on HCC-2998 colon, with OVCAR-8 ovarian, with K-562 leukemia, in the experiment with MDA-N and in the experiment with NCI-H226 lung was over 100 µM in each case. Besides, the TGI in the experiment with HCT-116 colon, in the experiment with HOP-62 NSCLC, with MCF7 breast, in the experiment with MDA-MB-231 breast and with RXF 393 renal was over 100 µM in each case.
For `CC(C)CCCC(C)[C@H]1CC[C@H]2NCCCC[C@]12C` (some centres not stated), the TGI was 19.8 µM in the experiment on IGROV1 ovarian; 2.72 µM in the experiment with HCC-2998 colon; over 25.4 µM in the experiment with OVCAR-8 ovarian; 6.61 µM in the experiment on K-562 leukemia; 3.99 µM in the experiment with MDA-N; 29 µM in the experiment on NCI-H226 lung. In addition, the TGI with HCT-116 colon is 20 µM; in the experiment on HOP-62 NSCLC, 29.1 µM; in the experiment on MCF7 breast, 4.37 µM; in the experiment with MDA-MB-231 breast, 9.36 µM; in the experiment with RXF 393 renal, 4.62 µM.
With `O=C1c2ccccc2C2(c3ccc(Cl)cc3)N[C@@H]3CCCC[C@@H]3N12` (some centres not stated), the TGI in the experiment on IGROV1 ovarian, with HCC-2998 colon, with OVCAR-8 ovarian, in the experiment on K-562 leukemia, with MDA-N and with NCI-H226 lung was over 100 µM throughout. Besides, the TGI in the experiment on HCT-116 colon, with HOP-62 NSCLC, in the experiment with MCF7 breast, with MDA-MB-231 breast and with RXF 393 renal was over 100 µM each time.
For the compound `C=C(C)[C@@H]1CC[C@]2(C(=O)OC3OC(COC4OC(CO)C(OC5OC(C)C(O)C(O)C5O)C(O)C4O)C(O)C(O)C3O)CC[C@]3(C)[C@H](CC[C@@H]4[C@@]5(C)CC[C@H](O)[C@@](C)(CO)[C@@H]5CC[C@]43C)[C@@H]12` (some centres not stated), the TGI in the experiment on IGROV1 ovarian is over 10 µM; in the experiment on HCC-2998 colon, over 6.91 µM; in the experiment with OVCAR-8 ovarian, over 10 µM; in the experiment on K-562 leukemia it was over 6.45 µM; with MDA-N, over 10 µM; in the experiment with NCI-H226 lung, over 10 µM. For the same compound, the TGI in the experiment on HCT-116 colon was over 6.75 µM; in the experiment with HOP-62 NSCLC, over 10 µM; with MCF7 breast, over 10 µM; in the experiment on MDA-MB-231 breast, over 9.18 µM; in the experiment on RXF 393 renal, over 10 µM.
Turning to `O=C1/C(=C(/Br)I)c2ccccc2-c2ccccc21`, the TGI in the experiment with IGROV1 ovarian was determined as 27.7 µM; in the experiment on HCC-2998 colon, 11.4 µM; with OVCAR-8 ovarian, 31.5 µM; in the experiment on K-562 leukemia it was 7.24 µM; in the experiment with MDA-N, 9.78 µM; in the experiment on NCI-H226 lung it was 35.4 µM. For the same compound, the TGI in the experiment with HCT-116 colon worked out at 25.2 µM; in the experiment on HOP-62 NSCLC, 36.6 µM; in the experiment with MCF7 breast it was 32.9 µM; in the experiment with MDA-MB-231 breast, 19.2 µM; in the experiment with RXF 393 renal it was 13.1 µM.
For `O=P1(N(CCCl)CCCl)NCCCO1` (configuration not stated), the TGI in the experiment with IGROV1 ovarian is over 239 µM; in the experiment with HCC-2998 colon, over 205 µM; in the experiment with OVCAR-8 ovarian, over 238 µM; in the experiment on K-562 leukemia, over 230 µM; in the experiment on MDA-N, over 250 µM; in the experiment with NCI-H226 lung, over 250 µM. The TGI with HCT-116 colon, in the experiment with HOP-62 NSCLC, with MCF7 breast, in the experiment with MDA-MB-231 breast and in the experiment on RXF 393 renal was over 250 µM in each case.
